Legend:
HL-60 [1] = experiment: Induction of mitochondrial membrane potential loss in human HL60 cells after 24 hrs by JC-1 staining-based flow cytometry (reference value: 24.3%); format: functional
HL-60 [2] = experiment: Induction of mitochondrial membrane potential loss in human HL60 cells after 24 hrs by JC-1 staining-based flow cytometry (reference value: 28.6%); format: functional

## N#CC(C#N)=NNc1cccc(Cl)c1 [CARBONYL CYANIDE M-CHLOROPHENYLHYDRAZONE]
HL-60 [1]
  Activity: 85.8%
HL-60 [2]
  Activity: 62.4%
